Measured values taken from patent US8729074B2, “Inhibitors of PI3 kinase” (Amgen Inc., priority 2009, dated 2014).

How the values were obtained:
PI3Kα [1] = target: T1, PI3Kα (Homo sapiens (Human), UniProt P42336); test: In vitro PI3K AlphaScreen assay; type: biochemical; conditions: average if run more than once
Procedure: In Vitro PI3K AlphaScreen® Assay
The PI3K AlphaScreen® assay (PerkinElmer, Waltham, Mass.) measures the activity of a panel of four phosphoinositide 3-kinases: PI3Kα, PI3Kβ, PI3Kγ, and PI3Kδ. Each of these enzymes phosphorylates the 3′-hydroxyl group on phosphatidylinositiol (4,5)-bisphosphate (PIP2) to produce phosphatidylinositol (3,4,5)-trisphosphate (PIP3). This phosphorylation activity is measured using a GST-tagged PIP3 binding protein (Echelon Biosciences, Salt Lake City, Utah), an anti-GST-tagged Acceptor bead, and streptavidin-Donor bead. […] In the absence of this interaction, proximity of the Donor and Acceptor beads is decreased, producing a loss of luminescent signal which is inversely proportional to PI3K activity.
The enzyme reaction buffer is made using sterile water (Baxter, Deerfield, Ill.) and 50 mM Tris HCl pH 7, 14 mM MgCl2, 2 mM sodium cholate, and 100 mM NaCl. 2 mM DTT is added fresh the day of the experiment. The AlphaScreen® reaction buffer is made using sterile water and 10 mM Tris HCl pH 7.5, 150 mM NaCl, 0.10% Tween 20, and 30 mM EDTA. 1 mM DTT is added fresh the day of the experiment.
The source plates for this assay are 384-well Greiner clear polypropylene plates containing test compounds at 5 mM and diluted 1:2 over 22 points. Columns 23 and 24 contain only DMSO as these are designated for positive and negative controls. Source plates are replicated into 384-well Optiplates (PerkinElmer, Waltham, Mass.), 0.5 μL/well, to make assay-ready plates.
The different PI3K isoforms are each diluted in enzyme reaction buffer to 2× working solutions. […] Two different 2× substrate solutions are made in enzyme reaction buffer. In one solution, PI(4,5)P2 (Echelon Biosciences, Salt Lake City, Utah) is diluted to 10 μM and ATP is diluted to 20 μM. This solution is used in the assays testing PI3Kα and PI3Kβ. In a second solution, PI(4,5)P2 is diluted to 10 μM and ATP is diluted to 8 μM. This solution is used in the assays testing PI3Kγ and PI3Kδ.
The AlphaScreen® reaction solutions are made using beads from the anti-GST AlphaScreen® kit (PerkinElmer, Waltham, Mass.). Two solutions are made in Alphascreen reaction buffer to 4× working concentrations. In one solution, biotinylated-IP4 (Echelon Biosciences, Salt Lake City, Utah) is diluted to 40 nM and streptavadin-Donor Beads are diluted to 80 μg/mL. In the second solution, PIP3-binding protein (Echelon Biosciences, Salt Lake City, Utah) is diluted to 40 nM and anti-GST-Acceptor Beads are diluted to 80 μg/mL. 10 μL/well of enzyme reaction buffer is added to Column 24 of the assay ready plates in place of enzyme. This is done for plates in the PI3Kα, β, and δ assays.
Using a 384-well dispensing Multidrop (Titertek, Huntsville, Ala.), 10 μL/well of 2× enzyme (PI3Kα, β, δ) is added to Columns 1-23 of the appropriate assay ready plates (for PI3Kγ 10 μL is added to Columns 1-24). 10 μL/well of the appropriate substrate solution (the solution with 20 μM ATP for PI3Kα and β assays, and the solution with […] for PI3Kγ and δ assays) is then added to Columns 1-24 of the plates. Plates are then incubated at room temperature for 20 minutes.
In the dark, 10 μL/well of the Donor Bead solution is added to Columns 1-24 of the plates to quench the enzyme reaction. The plates are incubated at room temperature for 30 minutes. Still in the dark, 10 μL/well of the Acceptor Bead solution is also added to Columns 1-24 of the plates. The plates are then incubated in the dark for 1.5 hours. The plates are read on an Envision Multilabel Plate Reader (PerkinElmer, Waltham, Mass.) with a 680 nm excitation filter and a 520-620 nm emission filter.
Activity data for the compounds tested in the assay is provided in Table 1 under the column heading PI3Kα AlphaScreen®.

PI3Kα [2] = target: T1, PI3Kα; test: In vitro PI3 kinase enzyme assay (PI3K ATPLoss); type: biochemical; conditions: average if run more than once
Procedure: Recombinant Expression of PI3K Enzymes
Full length p110 subunits of PI3K α, β and δ, N-terminally labeled with polyHis tag, can be co-expressed with p85 with Baculo virus expression vectors in sf9 insect cells. P110/p85 heterodimers can be purified by sequential Ni-NTA, Q-HP, Superdex-100 chromatography. Purified α, β and δ isozymes can be stored at −20° C. in 20 mM Tris, pH 8, 0.2M NaCl, 50% glycerol, 5 mM DTT, 2 mM Na cholate. […] The γ isozyme can be purified by sequential Ni-NTA, Superdex-200, Q-HP chromatography. The γ isozyme can be stored frozen at −80° C. in NaH2PO4, pH 8, 0.2M NaCl, 1% ethylene glycol, 2 mM β-mercaptoethanol.
In Vitro PI3 Kinase Enzyme Assays (PI3K ATPLoss)
PI3K enzyme assays (alpha, beta, delta and gamma) can be performed in 25 μL with the above final concentrations of components in white polyproplyene plates. Phosphatidyl inositol phosphoacceptor, PtdIns(4,5)P2 (e.g., P4508) can be obtained from Echelon Biosciences, Salt Lake City, Utah. […] Test compounds can be dissolved in DMSO and diluted with three-fold serial dilutions. The compound in DMSO (1 μL) may be added per test well, and the inhibition relative to reactions containing no compound, with and without enzyme can be determined. After assay incubation at RT, the reaction can be stopped and residual ATP can be determined by addition of an equal volume of a commercial ATP bioluminescence kit (Perkin Elmer EasyLite, Perkin Elmer, Waltham, Mass.) according to the manufacturer's instructions, and detected using an Analyst GT luminometer.

[3] = test system: phosphorylation of Akt at Serine 473 in U87 MG cells; test: pAkt AlphaScreen (U87 cell); type: cell-based; conditions: Homo sapiens, U-87 MG, 2 h; pAkt Ser473, U87 MG cells, compound two hours; average if run more than once
Procedure: pAkt AlphaScreen (U87 Cell)
The pAkt AlphaScreen® assay (PerkinElmer, Waltham, Mass.) determines whether there is phosphorylation of Akt at Serine 473 by recruitment of a phosphospecific antibody. This assay was performed using U87 MG cells. The U87 growth media consists of MEM (Gibco, Carlsbad, Calif.) supplemented with 10% FBS (Gibco), 1× Non-Essential Amino Acids (Gibco) and 1× Penicillin/Streptomycin/Glutamine (Gibco). The cells were maintained weekly using 0.05% Trypsin (Gibco) and replated in 150 mm TC—Treated Culture Dishes (Corning, Corning, N.Y.).
The first day of the assay, the adherent cells were trypsinized, media was added to the loose cells and cells were mixed to a homogenous mixture. 0.5 ml of the homogenous mixture was counted on the Beckman Coulter® Vi-CELL™ XR (Fullerton, Calif.). 50 frames of cells were counted and the number of viable cells was determined. The cells were then diluted to 0.25 million cells per ml, and centrifuged at 200 rcf for 5 minutes. The media was removed and the cells were reconstituted in fresh media for plating. The cells were plated at 20 μl per well on the PerkinElmer® Flexprop PLUS in Low Volume 384 Well White Tissue Culture Plates (Corning) with a final cell density of 5K cells per well. The plates were incubated overnight at 37° Celsius, 5% CO2.
On the second day, the compound plates were prepared, the cells were treated with compound and the pAkt reaction mix was added to the cell lysate. 384 well compound plates were prepared containing 1 μl of compound per well starting at 5 mM and diluted 1:2 across the row, resulting in a 22 well serial dilution. 39 μl of growth media was added to the compound plate in rows 1-22 using the PerkinElmer® Flexprop PLUS resulting in a DMSO concentration of 2.5%. The cell plates and diluted compound plates were put onto the VELOCITY11™ VPREP™ 384 ST where the compound plate was mixed and 5 μl of serially diluted compound or controls was added to the cell plate. The final concentration of the compounds was 25 μM serially diluted to 11.9 pM in 0.5% DMSO. The cell plates were then incubated with compound for two hours at 37° Celsius, 5% CO2. After two hours, the media in the cell plates was aspirated using the BioTek® ELx405HT plate washer (Winooski, Vt.) removing the majority of media and compound without disturbing the adherent U87 cells. The following assay reagents are components of the SureFire® Akt (Ser 473) Phosphorylation 50K Point Kit (TGR BioSciences, Adelaide, Australia) and an IgG Detection Kit (PerkinElmer, Waltham, Mass.). 5 μl of 1× Lysis Buffer was added to each well using the PerkinElmer® Flexprop PLUS. The plates were then incubated at room temperature on a shaker for ten minutes. The AlphaScreen® reaction was prepared under low light conditions (subdued or green light) including p-Akt (Ser 473) Reaction Buffer, Dilution Buffer, Activation Buffer, Acceptor Beads and Donor Beads at a ratio of 40:20:10:1:1 respectively. The AlphaScreen® reaction was added to the cell lysate at 6 μl per well using the PerkinElmer® Flexprop PLUS. The plates were placed in a humid environment to reduce edge effects and incubated overnight at room temperature with restricted air flow in the dark.
On the final day of the experiment, the plates were read on the PerkinElmer® EnVision™ 2103 Multilable Reader using the standard AlphaScreen® readout. The POC is calculated and the data is analyzed to report the IC50 IP for pAkt at Serine 473.
Activity data for the compounds tested in the PI3K cell based Akt assay is provided in Table 1 under the column heading U87

mTOR = mTOR (Homo sapiens (Human), UniProt P42345); test: In vitro mTOR Lanthascreen assay; type: biochemical; conditions: average if run more than once
From the text: The Invitrogen (Carlsbad, Calif.) mammalian target of rapamycin (mTOR) Lanthascreen assay can be used to quantitate mTOR kinase activity in an in vitro setting. Active mTOR phosphorylates eukaryotic translation initiation factor 4E binding protein 1 (4E-BP1) on residue threonine 46. This phosphorylation event can be detected with a phospho-specific terbium (Tb) labeled Ab, in turn bringing the Tb label in close proximity to the GFP tagged 4E-BP 1 and allowing for time-resolved fluorescence resonance energy transfer (TR-FRET), which correlates 4E-BP1 phosphorylation levels with mTOR kinase activity.
Enzyme reaction buffer can be prepared in deionized water containing 50 mM HEPES (pH 7.5), 0.01% Polysorbate 20, 1 mM EGTA, and 10 mM MnCl2.
Dilutions of the compound to be tested can be prepared in 96-well polypropylene plates (Fisher Scientific, Waltham, Mass.). One row represents a 10-point dose of compound diluted 1:3 in enzyme reaction buffer and 20% dimethyl sulfoxide (DMSO). The top concentration for all compounds is 36 μM. Wells 6 and 12 can serve as the no compound (DMSO only) and high compound controls.
An mTOR substrate solution can prepared in enzyme reaction buffer containing 1600 nM green fluorescent protein tagged eukaryotic translation initiation factor 4E binding protein 1 (GFP-4E-BP1) (Invitrogen, Carlsbad, Calif.) and 28 uM adenosine triphosphate (ATP) (Calbiochem, Gibbstown, N.J.).
mTOR enzyme (Invitrogen, Carlsbad, Calif.) can be diluted in enzyme reaction buffer to a working concentration of 100 ng/mL.
The enzyme assay can be run in 384 well low volume assay plates (Corning, Corning, N.Y.). 2.5 uL of substrate solution containing GFP-4E-BP1 and ATP can be added to appropriate wells in the assay plate followed by 2.5 μL of compound dilutions. 5 μL of appropriately diluted mTOR enzyme can be added and the reaction allowed to proceed for 1 hour at room temperature. Final reagent concentrations in the enzyme assay are 50 ng/mL mTOR, 400 nM GFP-4E-BP1, and 7 μM ATP.
The enzyme assay can be terminated upon the addition of 10 μL of 20 mM EDTA and 4 nM Tb-labeled anti-phospho-4E-BP1 [T46] antibody (Invitrogen, Carlsbad, Calif.). The assay plate can then be incubated at room temperature for 1 hour and results read on a Tecan Safire II plate reader (Tecan, Männedorf, Switzerland).

T1 sequence (P42336 whole entry): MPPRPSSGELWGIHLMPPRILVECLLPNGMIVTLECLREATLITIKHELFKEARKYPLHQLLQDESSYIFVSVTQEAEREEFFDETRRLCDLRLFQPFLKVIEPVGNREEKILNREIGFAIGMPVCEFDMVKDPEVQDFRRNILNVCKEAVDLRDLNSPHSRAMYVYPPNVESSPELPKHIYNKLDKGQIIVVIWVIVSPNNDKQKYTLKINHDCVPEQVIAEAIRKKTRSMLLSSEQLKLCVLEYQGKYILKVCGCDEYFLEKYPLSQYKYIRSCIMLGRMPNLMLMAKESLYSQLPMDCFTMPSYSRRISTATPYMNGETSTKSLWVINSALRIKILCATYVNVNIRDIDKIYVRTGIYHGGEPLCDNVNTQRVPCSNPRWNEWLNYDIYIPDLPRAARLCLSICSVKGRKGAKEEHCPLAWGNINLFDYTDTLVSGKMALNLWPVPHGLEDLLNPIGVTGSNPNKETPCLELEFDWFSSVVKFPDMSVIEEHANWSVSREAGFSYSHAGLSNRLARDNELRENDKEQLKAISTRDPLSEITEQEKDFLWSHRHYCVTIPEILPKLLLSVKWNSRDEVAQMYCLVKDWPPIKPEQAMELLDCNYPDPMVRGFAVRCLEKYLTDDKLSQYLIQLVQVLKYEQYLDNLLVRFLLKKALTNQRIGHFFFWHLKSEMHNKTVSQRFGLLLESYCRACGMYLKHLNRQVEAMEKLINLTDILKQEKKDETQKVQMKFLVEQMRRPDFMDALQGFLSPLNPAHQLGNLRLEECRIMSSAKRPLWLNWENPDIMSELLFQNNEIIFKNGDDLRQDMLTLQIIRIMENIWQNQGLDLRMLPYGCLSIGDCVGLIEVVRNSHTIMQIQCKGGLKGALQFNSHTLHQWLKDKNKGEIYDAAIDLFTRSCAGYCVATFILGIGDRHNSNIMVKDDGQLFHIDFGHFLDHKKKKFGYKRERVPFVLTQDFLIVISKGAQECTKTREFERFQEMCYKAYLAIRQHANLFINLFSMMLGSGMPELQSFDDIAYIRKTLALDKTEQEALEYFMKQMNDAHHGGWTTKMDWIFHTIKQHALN
T1 sequence (P27986 whole entry partner): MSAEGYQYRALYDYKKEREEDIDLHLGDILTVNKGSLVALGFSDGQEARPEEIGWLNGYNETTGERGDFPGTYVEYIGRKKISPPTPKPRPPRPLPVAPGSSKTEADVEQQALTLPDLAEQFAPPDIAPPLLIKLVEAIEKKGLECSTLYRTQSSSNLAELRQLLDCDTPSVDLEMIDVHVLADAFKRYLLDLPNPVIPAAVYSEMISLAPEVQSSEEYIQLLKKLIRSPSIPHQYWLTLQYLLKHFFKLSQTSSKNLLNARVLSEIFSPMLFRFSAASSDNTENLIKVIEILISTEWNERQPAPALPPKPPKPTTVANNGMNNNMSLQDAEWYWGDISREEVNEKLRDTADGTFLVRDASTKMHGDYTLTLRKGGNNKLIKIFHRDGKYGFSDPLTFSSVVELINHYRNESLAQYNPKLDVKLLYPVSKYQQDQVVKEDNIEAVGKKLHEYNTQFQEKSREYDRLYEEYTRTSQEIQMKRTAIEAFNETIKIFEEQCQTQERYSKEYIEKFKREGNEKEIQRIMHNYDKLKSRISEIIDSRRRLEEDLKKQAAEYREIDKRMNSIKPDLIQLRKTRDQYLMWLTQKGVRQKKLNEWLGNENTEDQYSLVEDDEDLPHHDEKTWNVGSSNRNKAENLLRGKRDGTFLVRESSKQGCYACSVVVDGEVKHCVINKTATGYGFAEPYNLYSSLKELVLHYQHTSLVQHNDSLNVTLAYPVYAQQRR
Sequence of mTOR (P42345 1360-2549): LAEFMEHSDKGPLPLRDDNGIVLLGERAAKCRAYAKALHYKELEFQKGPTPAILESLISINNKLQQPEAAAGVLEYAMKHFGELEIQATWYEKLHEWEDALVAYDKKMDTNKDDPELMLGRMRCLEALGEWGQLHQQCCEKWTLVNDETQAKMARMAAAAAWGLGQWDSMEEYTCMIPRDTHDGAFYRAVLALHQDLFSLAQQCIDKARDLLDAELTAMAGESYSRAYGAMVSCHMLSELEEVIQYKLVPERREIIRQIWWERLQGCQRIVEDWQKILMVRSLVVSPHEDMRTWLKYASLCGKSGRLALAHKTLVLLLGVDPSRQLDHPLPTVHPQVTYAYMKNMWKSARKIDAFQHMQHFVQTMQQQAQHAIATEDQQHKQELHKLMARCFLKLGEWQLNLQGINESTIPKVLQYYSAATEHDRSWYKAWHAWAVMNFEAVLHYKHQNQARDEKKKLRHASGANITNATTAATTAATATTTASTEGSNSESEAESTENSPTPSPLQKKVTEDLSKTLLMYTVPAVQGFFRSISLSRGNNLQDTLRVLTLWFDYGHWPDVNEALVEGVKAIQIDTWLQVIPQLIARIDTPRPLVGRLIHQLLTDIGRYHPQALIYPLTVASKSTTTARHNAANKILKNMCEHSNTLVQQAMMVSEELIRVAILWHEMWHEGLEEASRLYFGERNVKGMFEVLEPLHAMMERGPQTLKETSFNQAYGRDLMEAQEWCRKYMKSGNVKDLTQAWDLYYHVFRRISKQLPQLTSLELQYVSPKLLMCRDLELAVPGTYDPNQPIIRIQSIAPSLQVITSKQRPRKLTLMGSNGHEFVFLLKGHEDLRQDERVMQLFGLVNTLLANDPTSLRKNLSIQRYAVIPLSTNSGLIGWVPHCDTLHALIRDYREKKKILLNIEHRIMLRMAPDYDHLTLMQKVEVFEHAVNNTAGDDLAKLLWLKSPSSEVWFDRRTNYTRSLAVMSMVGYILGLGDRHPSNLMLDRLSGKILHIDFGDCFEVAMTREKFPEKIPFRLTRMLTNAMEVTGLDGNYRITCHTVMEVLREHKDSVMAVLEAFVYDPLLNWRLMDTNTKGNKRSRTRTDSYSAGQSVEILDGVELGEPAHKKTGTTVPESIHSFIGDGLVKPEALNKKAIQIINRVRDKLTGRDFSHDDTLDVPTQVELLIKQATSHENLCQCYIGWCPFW

Structure (SMILES) | Ki (PI3Kα [1]) | IC50 (PI3Kα [2]) | IC50 [3] | IC50 (mTOR)
O=S(=O)(Nc1cncc(-c2cnc3ccccn23)c1)c1ccc(F)cc1 [Example 2, 4-Fluoro-N-(5-imidazo[1,2-a]pyridin-3-yl-3-pyridinyl)benzenesulfonamide] | 1290 nM | 931 nM | – | –
COc1cc(-c2cnc3ccc(N4C(=O)OC[C@H]4Cc4ccccc4)cn23)cnc1OC [Example 14, (4R)-4-Benzyl-3-(3-(5,6-dimethoxy-3-pyridinyl)imidazo[1,2-a]pyridin-6-yl)-1,3-oxazolidin-2-one] | 268 nM | – | 6970 nM | –
COc1cc(-c2cnc3ccc(N4C(=O)OC[C@@H]4Cc4ccccc4)cn23)cnc1OC [Example 15, (4S)-4-Benzyl-3-(3-(5,6-dimethoxy-3-pyridinyl)imidazo[1,2-a]pyridin-6-yl)-1,3-oxazolidin-2-one] | 286 nM | – | 6620 nM | –
O=c1n(Cc2ccccc2)ccc2ncc(-c3cnc(Cl)c(NS(=O)(=O)c4ccc(F)cc4)c3)n12 [Example 17, N-(5-(6-Benzyl-5-oxo-5,6-dihydroimidazo[1,2-c]pyrimidin-3-yl)-2-chloropyridin-3-yl)-4-fluorobenzenesulfonamide] | 465 nM | – | – | 180 nM
O=S(=O)(Nc1cc(-c2cnc3ncccn23)cnc1Cl)c1ccc(F)cc1 [Example 24, N-(2-Chloro-5-(imidazo[1,2-a]pyrimidin-3-yl)pyridin-3-yl)-4-fluorobenzenesulfonamide] | 378 nM | 781 nM | – | > 50000 nM
